In experiment [1] the test system is M14 (amelanotic melanoma) cells. In words: antiproliferation assay (72 h, CELLTITER 96), M14. It counts as cell-based, human. The settings on record: Homo sapiens. In outline: (§1)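 Human M14 melanoma and NCI-H460 lung carcinoma cells in RPMI-1640/10% FBS, seeded at 5×10^2–5×10^4 cells/well and adhered overnight, then exposed to seven compound concentrations for 72 h at 37 °C. Viable cells read by CellTiter 96 AQueous (MTS); IC50 = concentration giving 50% of maximal growth inhibition.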

Experiment [2] relates to NCI-H460 (large cell lung carcinoma) cells. Nature of the experiment: antiproliferation assay (72 h, CELLTITER 96), NCI-H460. Format: cell-based, human. The settings on record: Homo sapiens. A digest of the protocol:
as §1

The subject of another experiment is LOX-IMVI cells. In words: antiproliferation assay, LOX-IMVI. Format: cell-based. To be noted: Homo sapiens. As for the experimental part:
(§2) For the antiproliferation assay, NCI-H460 (large cell lung carcinoma) or M14 (amelanotic melanoma) cells were grown in RPMI-1640 with 10% FBS supplemented with L-glutamine and HEPES. Cells were seeded into 96-well plates at 5×10^2 to 5×10^4 cells/well and allowed to adhere overnight; the medium was then removed. A stock solution of test compound in DMSO was diluted in medium to generate a series of working solutions. Aliquots (100 μl) of the working solutions were then added to the appropriate test wells to expose cells to the final concentrations of compound in a total volume of 100 μl. Seven different concentrations were tested, with 2-5 wells per concentration. Camptothecin was used as a positive control; wells containing vehicle without compound were used as negative controls. Plates were kept for 72 h in a 37° C., 5% CO2 incubator. After incubation, viable cells were detected with the CELLTITER 96 AQueous Non-Radioactive Cell Proliferation Assay (Promega), and IC50 values were determined using GraphPad Prism 5 software.
(§3) Antiproliferation of several of the active compounds was tested against additional cell lines.

In another experiment the test system is MES-SA/Dx5 cells. Nature of the experiment: antiproliferation assay, MES-SA/Dx5. The settings on record: Homo sapiens. Format: cell-based. The procedure: as §2, §3
(§4) Compound 4 was tested for antiproliferation activity against several paclitaxel-resistant human cancer cell lines.

Another experiment deals with MOLT-4 cells. In words: antiproliferation assay, MOLT-4. The settings on record: Homo sapiens. Format: cell-based. The procedure:
as §2, §3

The next experiment deals with NCI/ADR-RES cells. Nature of the experiment: antiproliferation assay, NCI/ADR-RES. It counts as cell-based. To be noted: Homo sapiens. The procedure: as §2, §3, §4
For another experiment, the system named is OVCAR-4 cells. Nature of the experiment: antiproliferation assay, OVCAR-4. It counts as cell-based. To be noted: Homo sapiens. As for the experimental part: as §2, §3
A further experiment has as its system K-562 cells. In words: antiproliferation assay, K-562. The settings on record: Homo sapiens, K562. Format: cell-based. The procedure:
as §2, §3

For another experiment, the system named is OVCAR-3 cells. In words: antiproliferation assay, OVCAR-3. The settings on record: Homo sapiens. Format: cell-based. The procedure:
as §2, §3

The next experiment deals with SK-Mel-2 cells. In words: antiproliferation assay, SK-Mel-2. Format: cell-based. To be noted: Homo sapiens. The procedure: as §2, §3
The test system of the next experiment is NCI-H187 cells. In words: antiproliferation assay, NCI-H187. To be noted: Homo sapiens. Format: cell-based. The procedure:
as §2, §3

A further experiment has as its system UO-31 cells. In words: antiproliferation assay, paclitaxel-resistant UO-31. The settings on record: Homo sapiens. It counts as cell-based. As for the experimental part: as §2, §4
The test system of the next experiment is HCT-15 cells. Nature of the experiment: antiproliferation assay, paclitaxel-resistant HCT-15. It counts as cell-based. The settings on record: Homo sapiens. The procedure: as §2, §4
For a further experiment, the system named is EKVX cells. In words: antiproliferation assay, paclitaxel-resistant EKVX. It counts as cell-based. To be noted: Homo sapiens. As for the experimental part:
as §2, §4

In the next experiment the test system is DLD-1 cells. In words: antiproliferation assay, paclitaxel-resistant DLD-1. The settings on record: Homo sapiens. Format: cell-based. As for the experimental part: as §2, §4
The test system of a further experiment is ACHN cells. Nature of the experiment: antiproliferation assay, paclitaxel-resistant ACHN. Format: cell-based. To be noted: Homo sapiens. The procedure: as §2, §4
The test system of another experiment is TK-10 cells. Nature of the experiment: antiproliferation assay, paclitaxel-resistant TK-10. It counts as cell-based. To be noted: Homo sapiens. As for the experimental part: as §2, §4
Setting [3] is: NCI-H460, Table 7, read-out: NCI-H460 IC50.
Where [4] appears, read: NCI-H460, Table 4, read-out: NCI-H460 IC50.
Where [5] appears, read: NCI-H460, Table 3, read-out: NCI-H460 IC50.

The results in this text go back to patent publication US9562031B1, “Phenethyldihydrobenzodioxolones and methods of use” (Sequoia Sciences, Inc., priority 2015, dated 2017).

Like-named read-outs stand apart in the source and are kept apart here.

In general, IC50 refers to the concentration that inhibits the measured activity by half. In the case of `CCC[C@H]1C[C@]2([C@H](C)Cc3cc(F)c(OC)cc3F)OCOC2=CC1=O` [Compound 61, (6S,7aR)-7a-((R)-1-(2,5-difluoro-4-methoxyphenyl)propan-2-yl)-6-propyl-7,7a-dihydrobenzo[d][1,3]dioxol-5(6H)-one], the IC50 worked out at 17 nM in experiment [1] (Table 7); 140 nM in [2] (setting [3]); 53 nM with LOX-IMVI cells; 84 nM with MES-SA/Dx5 cells (MES-SA/Dx5, MES-SA/Dx5); 120 nM in the experiment on MOLT-4 cells; 63 nM in the experiment with NCI/ADR-RES cells. In the experiment with OVCAR-4 cells, this compound yielded an IC50 of 37 nM.

For the compound `C=CC[C@H]1C[C@]2([C@@H](C)Cc3ccc(OC)c(C(N)=O)c3)OCOC2=CC1=O` [Compound 29, 5-((S)-2-((3aR,5S)-5-allyl-6-oxo-3a,4,5,6-tetrahydrobenzo[d][1,3]dioxol-3a-yl)propyl)-2-methoxybenzamide], the IC50 is 12 nM in experiment [1] (Table 4); 66 nM in experiment [2] (setting [4]); 25 nM with K-562 cells; 26 nM in the experiment on LOX-IMVI cells; 31 nM in the experiment on MES-SA/Dx5 cells (MES-SA/Dx5, MES-SA/Dx5); 83 nM with MOLT-4 cells. Further, the IC50 in the experiment with NCI/ADR-RES cells worked out at 44 nM; with OVCAR-3 cells, 57 nM; in the experiment on SK-Mel-2 cells, 9.2 nM.

Consider `C=CC[C@H]1C[C@]2([C@H](C)Cc3cc(F)c(OC)cc3F)OCOC2=CC1=O` (relative stereo) [Compound 6, 6-allyl-7a-(1-(2,5-difluoro-4-methoxyphenyl)propan-2-yl)-7,7a-dihydrobenzo[d][1,3]dioxol-5(6H)-one], for which the IC50 in [1] (Table 3) came to 10 nM; in experiment [2] (setting [5]) it was 35 nM; with K-562 cells, 28 nM; in the experiment with LOX-IMVI cells, 18 nM; in the experiment on MES-SA/Dx5 cells (MES-SA/Dx5, MES-SA/Dx5), 14 nM; in the experiment with MOLT-4 cells it was 81 nM. In addition, the IC50 in the experiment on NCI/ADR-RES cells was found to be 13 nM; with NCI-H187 cells, 22 nM; with OVCAR-3 cells, 38 nM.

Take `C=CC[C@H]1C[C@]2([C@@H](C)Cc3ccc(OC)cc3F)OCOC2=CC1=O` (relative stereo) [Compound 2, 6-allyl-7a-(1-(2-fluoro-4-methoxyphenyl)propan-2-yl)-7,7a-dihydrobenzo[d][1,3]dioxol-5(6H)-one]: the IC50 in experiment [1] (Table 3) was 11 nM; in [2] (setting [5]) it was 88 nM; in experiment [2] (NCI-H460, as quoted in the pharmacokinetics text, read-out: IC50 against NCI-H460 human lung cancer cells) it was 90 nM; in the experiment with K-562 cells, 76 nM; in the experiment on LOX-IMVI cells, 56 nM; in the experiment with MES-SA/Dx5 cells (MES-SA/Dx5, MES-SA/Dx5), 52 nM. Further, the IC50 in the experiment on MOLT-4 cells amounted to 110 nM; with NCI/ADR-RES cells it was 45 nM; in the experiment on NCI-H187 cells, 91 nM; in the experiment with OVCAR-3 cells it was 60 nM.

`CC(=O)O[C@H]1C(=O)[C@@]2(C)[C@H]([C@H](OC(=O)c3ccccc3)[C@]3(O)C[C@H](OC(=O)[C@H](O)[C@@H](NC(=O)c4ccccc4)c4ccccc4)C(C)=C1C3(C)C)[C@]1(OC(C)=O)CO[C@@H]1C[C@@H]2O` [paclitaxel, reference compound]: the IC50 with MES-SA/Dx5 cells (MES-SA/Dx5, paclitaxel-resistant MES-SA/Dx5) amounted to 5000 nM; in the experiment with NCI/ADR-RES cells (paclitaxel-resistant NCI/ADR-RES) it was 9600 nM; with UO-31 cells, 240 nM; in the experiment on HCT-15 cells, 165 nM; with EKVX cells, 150 nM; in the experiment with DLD-1 cells, 90 nM. The IC50 in the experiment with ACHN cells worked out at 90 nM; in the experiment with TK-10 cells it was 80 nM.

`C=CC[C@H]1C[C@]2([C@@H](C)Cc3cc(C(=O)NC)c(OC)cc3F)OCOC2=CC1=O` [Compound 12, 5-((S)-2-((3aR,5S)-5-allyl-6-oxo-3a,4,5,6-tetrahydrobenzo[d][1,3]dioxol-3a-yl)propyl)-4-fluoro-2-methoxy-N-methylbenzamide]: the IC50 in [1] (Table 3) was 240 nM; in experiment [2] (setting [5]) it was 520 nM.

Consider `C=CC[C@H]1C[C@]2([C@@H](C)Cc3ccc(OC)c(OC(=O)N(C)C)c3)OCOC2=CC1=O` [Compound 73, 5-((S)-2-((3aR,5S)-5-allyl-6-oxo-3a,4,5,6-tetrahydrobenzo[d][1,3]dioxol-3a-yl)propyl)-2-methoxyphenyl dimethylcarbamate], for which the IC50 in experiment [1] (Table 4) and in [2] (setting [4]) was more than 20000 nM throughout.

As to `C=C(C)C[C@H]1C[C@]2([C@@H](C)Cc3cc(O)c(OC)cc3F)OCOC2=CC1=O` [Compound 80, (6S,7aR)-7a-((S)-1-(2-fluoro-5-hydroxy-4-methoxyphenyl)propan-2-yl)-6-(2-methylallyl)-7,7a-dihydrobenzo[d][1,3]dioxol-5(6H)-one], the values for the IC50 in experiment [1] (Table 7) and in experiment [2] (setting [3]) were 220 nM and 370 nM, respectively.

Regarding `C=CC[C@H]1C[C@]2([C@H](C)Cc3ccc(OC)c(Cl)c3)OCOC2=CC1=O` [Compound 39, (6S,7aR)-6-allyl-7a-((R)-1-(3-chloro-4-methoxyphenyl)propan-2-yl)-7,7a-dihydrobenzo[d][1,3]dioxol-5(6H)-one], the figures for the IC50 in experiment [1] (Table 4) and in experiment [2] (setting [4]) were 130 nM and 420 nM, respectively.

Consider `C=CC[C@H]1C[C@]2([C@H](C)Cc3ccc(OC)cc3F)OCOC2=CC1=O` (relative stereo) [Compound 3, 6-allyl-7a-(1-(2-fluoro-4-methoxyphenyl)propan-2-yl)-7,7a-dihydrobenzo[d][1,3]dioxol-5(6H)-one], for which the IC50 in experiment [1] (Table 3) was 13 nM; in [2] (setting [5]) it was 77 nM.
